The source made the active and inactive calls.

The values that follow come from ChEMBL document CHEMBL1201862, “PubChem BioAssay data set” (2004).

One test concerns the target Troponin, cardiac muscle (Homo sapiens, UniProt P19429+P45379+P63316). As to the kind of experiment: Fluorescence-based biochemical high throughput dose response assay for activators of the calcium sensitivity of cardiac Regulated Thin Filaments (RTF). [Related pubchem assays (depositor defined):AID493008, AID493018, AID504382, AID504383]. Format: protein-complex assay.

Test [1] addresses Lysine-specific demethylase 4C (Homo sapiens, UniProt Q9H3R0). Put plainly: GASC-1 (JMJD2C) histone demethylase inhibitors, dose response, biochemical, DELFIA europium, cherry-picked samples (AID 488835). Format: functional.
The next test deals with T1, Hexokinase-1 (Homo sapiens, UniProt P19367).
T1 sequence (P19367 whole entry): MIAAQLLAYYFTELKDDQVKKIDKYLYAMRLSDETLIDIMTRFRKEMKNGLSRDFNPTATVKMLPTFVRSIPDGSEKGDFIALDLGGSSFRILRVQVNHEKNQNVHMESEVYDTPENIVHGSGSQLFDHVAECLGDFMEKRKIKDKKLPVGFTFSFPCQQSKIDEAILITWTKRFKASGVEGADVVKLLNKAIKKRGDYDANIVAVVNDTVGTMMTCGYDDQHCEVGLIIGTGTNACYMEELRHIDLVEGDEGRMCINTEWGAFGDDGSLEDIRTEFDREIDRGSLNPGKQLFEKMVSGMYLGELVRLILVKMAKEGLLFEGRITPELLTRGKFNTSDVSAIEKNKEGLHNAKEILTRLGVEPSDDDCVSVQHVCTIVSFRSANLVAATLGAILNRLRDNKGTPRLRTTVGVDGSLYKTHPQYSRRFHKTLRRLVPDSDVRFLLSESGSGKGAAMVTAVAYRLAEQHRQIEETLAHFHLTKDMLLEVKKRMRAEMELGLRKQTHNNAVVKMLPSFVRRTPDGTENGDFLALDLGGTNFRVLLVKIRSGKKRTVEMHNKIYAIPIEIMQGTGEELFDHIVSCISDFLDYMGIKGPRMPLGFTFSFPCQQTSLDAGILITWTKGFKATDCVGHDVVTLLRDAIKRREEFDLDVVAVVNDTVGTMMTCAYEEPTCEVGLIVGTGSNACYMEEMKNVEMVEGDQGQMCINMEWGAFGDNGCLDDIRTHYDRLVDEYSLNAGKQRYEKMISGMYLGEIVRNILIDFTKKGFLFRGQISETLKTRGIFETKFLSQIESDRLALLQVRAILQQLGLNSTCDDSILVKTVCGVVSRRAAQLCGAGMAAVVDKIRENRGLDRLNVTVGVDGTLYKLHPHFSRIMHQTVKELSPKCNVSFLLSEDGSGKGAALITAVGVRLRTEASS
Put plainly: hexokinase 1 activators, dose response, selectivity assay for HKDC1 activator project, biochemical (AID 504762). Format: functional.

The test system of a further test is INS1. As to the kind of experiment: beta cell apoptosis inhibitors, cytokine rescue, dose response, luminescence, retest (AID 449756).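 Also: cell death triggered by IL-1 beta plus TNF-alpha plus IFN-gamma mixture; protective hits raise ATP signal compared with cytokine alone wells.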 Format: functional, cell-based. As to conditions: Rattus norvegicus.
The target of another test is T2, Hexokinase HKDC1 (Homo sapiens, UniProt Q2TB90).
T2 sequence (Q2TB90 whole entry): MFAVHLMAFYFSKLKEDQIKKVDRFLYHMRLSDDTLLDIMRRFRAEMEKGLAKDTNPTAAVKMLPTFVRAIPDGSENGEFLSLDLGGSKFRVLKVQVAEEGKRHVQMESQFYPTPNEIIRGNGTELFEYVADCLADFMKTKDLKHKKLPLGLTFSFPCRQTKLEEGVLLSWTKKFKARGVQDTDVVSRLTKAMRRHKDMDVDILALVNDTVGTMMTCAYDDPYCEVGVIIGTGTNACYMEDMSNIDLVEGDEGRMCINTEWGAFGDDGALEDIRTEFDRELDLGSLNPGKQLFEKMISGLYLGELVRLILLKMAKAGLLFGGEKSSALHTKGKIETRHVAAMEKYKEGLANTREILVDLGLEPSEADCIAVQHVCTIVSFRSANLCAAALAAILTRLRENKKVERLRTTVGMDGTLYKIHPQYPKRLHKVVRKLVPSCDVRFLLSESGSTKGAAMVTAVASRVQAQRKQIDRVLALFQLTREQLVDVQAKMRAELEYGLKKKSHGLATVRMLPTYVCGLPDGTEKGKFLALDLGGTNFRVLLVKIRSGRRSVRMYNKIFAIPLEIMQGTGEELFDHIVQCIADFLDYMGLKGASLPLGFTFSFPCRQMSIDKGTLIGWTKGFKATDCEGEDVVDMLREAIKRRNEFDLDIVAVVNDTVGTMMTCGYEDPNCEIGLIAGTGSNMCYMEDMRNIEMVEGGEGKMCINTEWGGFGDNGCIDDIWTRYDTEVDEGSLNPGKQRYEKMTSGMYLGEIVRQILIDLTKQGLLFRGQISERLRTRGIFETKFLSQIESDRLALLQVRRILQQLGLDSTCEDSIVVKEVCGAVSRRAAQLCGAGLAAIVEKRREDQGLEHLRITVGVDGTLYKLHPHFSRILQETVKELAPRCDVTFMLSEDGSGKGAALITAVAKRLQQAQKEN
Put plainly: HKDC1 hexokinase activators, dose response, biochemical, W721R variant (AID 504730). Format: functional.

Test [2] concerns the target DNA dC->dU-editing enzyme APOBEC-3A (Homo sapiens, UniProt P31941). Put plainly: Dose Response confirmation of small molecule APOBEC3A DNA Deaminase Inhibitors via a fluorescence-based single-stranded DNA deaminase assay. [Related pubchem assays (depositor defined):AID493011, AID493024]. Format: functional.
Test [3] deals with DNA dC->dU-editing enzyme APOBEC-3G (Homo sapiens, UniProt Q9HC16). Format: functional.
Chain of DNA dC->dU-editing enzyme APOBEC-3G (Q9HC16 whole entry): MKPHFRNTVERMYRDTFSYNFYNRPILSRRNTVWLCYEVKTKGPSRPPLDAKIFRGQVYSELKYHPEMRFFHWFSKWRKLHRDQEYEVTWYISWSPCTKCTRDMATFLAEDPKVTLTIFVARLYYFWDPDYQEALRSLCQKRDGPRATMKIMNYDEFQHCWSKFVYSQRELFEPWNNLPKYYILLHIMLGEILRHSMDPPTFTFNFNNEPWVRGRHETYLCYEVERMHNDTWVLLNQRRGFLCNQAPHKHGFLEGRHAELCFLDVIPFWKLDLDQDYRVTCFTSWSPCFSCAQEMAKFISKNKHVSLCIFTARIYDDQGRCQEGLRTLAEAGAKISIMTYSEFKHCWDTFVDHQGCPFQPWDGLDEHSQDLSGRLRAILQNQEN
For test [4], the target named is Peroxisome proliferator-activated receptor gamma/Nuclear receptor coactivator 3 (Homo sapiens, UniProt P37231). Put plainly: TR-FRET dose response biochemical High Throughput Screening assay for agonists of the steroid receptor coactivator 3 (SRC-3) recruitment by the peroxisome proliferator-activated receptor gamma (PPAR gamma): non-selective agonists. [Related pubchem assays: 1301 (Confirmation screen.), 1048 (Primary screen.)]. Format: functional. A general note: Time-resolved FRET reads energy transfer from a long-lived donor to a nearby acceptor.

Test [5] addresses Peroxisome proliferator-activated receptor gamma/Nuclear receptor coactivator 1 (Homo sapiens, UniProt P37231). As to the kind of experiment: TR-FRET dose response biochemical High Throughput Screening assay for agonists of the steroid receptor coactivator 1 (SRC-1) recruitment by the peroxisome proliferator-activated receptor gamma (PPAR gamma): non-selective agonists. [Related pubchem assays (depositor defined):AID1300, AID1808, AID504735, AID631]. Format: protein assay.

In test [6] the target is Peroxisome proliferator-activated receptor gamma/Nuclear receptor coactivator 2 (Homo sapiens, UniProt P37231). As to the kind of experiment: TR-FRET dose response biochemical High Throughput Screening assay for agonists of the steroid receptor coactivator 2 (SRC-2) recruitment by the peroxisome proliferator-activated receptor gamma (PPAR gamma): non-selective agonists. [Related pubchem assays: 1297, 1032 ]. Format: functional.
Chain of Peroxisome proliferator-activated receptor gamma/Nuclear receptor coactivator 2 (P37231 whole entry): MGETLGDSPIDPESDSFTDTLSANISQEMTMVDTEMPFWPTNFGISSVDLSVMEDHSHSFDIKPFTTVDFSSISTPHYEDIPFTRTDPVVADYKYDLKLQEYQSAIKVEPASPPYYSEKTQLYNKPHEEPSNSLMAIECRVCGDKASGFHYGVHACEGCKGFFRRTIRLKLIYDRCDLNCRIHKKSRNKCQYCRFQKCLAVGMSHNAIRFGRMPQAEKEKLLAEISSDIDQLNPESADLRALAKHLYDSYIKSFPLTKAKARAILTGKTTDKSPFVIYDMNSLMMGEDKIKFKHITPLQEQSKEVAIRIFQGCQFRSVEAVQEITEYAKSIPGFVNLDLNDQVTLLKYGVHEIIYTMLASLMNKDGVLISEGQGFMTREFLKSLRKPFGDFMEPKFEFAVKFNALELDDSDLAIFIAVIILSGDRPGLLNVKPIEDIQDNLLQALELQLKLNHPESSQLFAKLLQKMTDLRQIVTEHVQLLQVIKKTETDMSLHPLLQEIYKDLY
Chain of Peroxisome proliferator-activated receptor gamma/Nuclear receptor coactivator 2 (Q15596 whole entry, further chain): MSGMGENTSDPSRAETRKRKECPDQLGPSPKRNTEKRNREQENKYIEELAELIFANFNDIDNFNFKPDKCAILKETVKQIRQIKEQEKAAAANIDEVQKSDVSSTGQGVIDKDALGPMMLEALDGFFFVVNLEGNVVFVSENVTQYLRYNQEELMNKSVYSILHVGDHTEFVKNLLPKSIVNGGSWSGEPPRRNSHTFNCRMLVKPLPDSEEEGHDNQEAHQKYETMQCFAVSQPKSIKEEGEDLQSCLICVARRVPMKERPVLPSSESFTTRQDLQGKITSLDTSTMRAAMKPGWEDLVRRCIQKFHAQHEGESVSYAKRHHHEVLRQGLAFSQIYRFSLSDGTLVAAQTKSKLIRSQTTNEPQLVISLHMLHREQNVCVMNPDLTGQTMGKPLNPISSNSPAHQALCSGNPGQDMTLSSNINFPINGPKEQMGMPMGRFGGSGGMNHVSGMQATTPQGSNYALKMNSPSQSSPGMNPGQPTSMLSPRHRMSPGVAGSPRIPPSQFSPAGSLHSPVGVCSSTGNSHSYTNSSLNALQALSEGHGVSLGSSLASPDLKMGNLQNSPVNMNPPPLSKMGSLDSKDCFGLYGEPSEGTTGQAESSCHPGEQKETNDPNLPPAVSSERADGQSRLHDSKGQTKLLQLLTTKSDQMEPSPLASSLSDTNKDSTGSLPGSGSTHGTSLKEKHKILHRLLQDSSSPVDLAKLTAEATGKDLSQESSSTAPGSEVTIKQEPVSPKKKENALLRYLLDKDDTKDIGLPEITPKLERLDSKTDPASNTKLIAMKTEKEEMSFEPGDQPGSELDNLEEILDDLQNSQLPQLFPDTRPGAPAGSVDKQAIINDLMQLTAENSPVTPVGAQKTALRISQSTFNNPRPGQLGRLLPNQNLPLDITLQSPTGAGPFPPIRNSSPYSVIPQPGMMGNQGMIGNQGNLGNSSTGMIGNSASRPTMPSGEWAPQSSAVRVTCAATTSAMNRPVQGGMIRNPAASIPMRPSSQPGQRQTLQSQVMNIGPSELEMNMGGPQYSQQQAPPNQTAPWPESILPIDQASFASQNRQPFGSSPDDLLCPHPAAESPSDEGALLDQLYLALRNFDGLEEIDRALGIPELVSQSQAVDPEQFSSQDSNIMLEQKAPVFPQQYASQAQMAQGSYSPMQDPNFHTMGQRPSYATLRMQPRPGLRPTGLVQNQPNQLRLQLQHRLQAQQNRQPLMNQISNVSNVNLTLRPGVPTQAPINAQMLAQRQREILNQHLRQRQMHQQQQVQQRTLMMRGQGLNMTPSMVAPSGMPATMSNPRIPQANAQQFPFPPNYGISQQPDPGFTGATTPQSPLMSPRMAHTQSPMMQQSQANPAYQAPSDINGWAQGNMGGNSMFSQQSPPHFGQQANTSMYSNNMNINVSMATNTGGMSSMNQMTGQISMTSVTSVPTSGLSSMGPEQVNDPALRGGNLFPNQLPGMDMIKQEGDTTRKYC

The next test concerns the target Keap1/Nrf2 (Homo sapiens, UniProt Q14145). Put plainly: Keap1-Nrf2 protein-protein interaction inhibitors, dose response, biochemical, fluorescence polarization, cherry-picked samples (AID 588683).
The nature of test [7]: HEp-2 cell cytotoxicity, dose response, cytotoxicity control for RSV inhibitor project, HTS (AID 2410). Particulars: human respiratory syncytial virus. Format: functional.
A further test addresses T3, CAAX prenyl protease 2 (Saccharomyces cerevisiae S288c, UniProt Q03530).
T3 sequence (Q03530 whole entry): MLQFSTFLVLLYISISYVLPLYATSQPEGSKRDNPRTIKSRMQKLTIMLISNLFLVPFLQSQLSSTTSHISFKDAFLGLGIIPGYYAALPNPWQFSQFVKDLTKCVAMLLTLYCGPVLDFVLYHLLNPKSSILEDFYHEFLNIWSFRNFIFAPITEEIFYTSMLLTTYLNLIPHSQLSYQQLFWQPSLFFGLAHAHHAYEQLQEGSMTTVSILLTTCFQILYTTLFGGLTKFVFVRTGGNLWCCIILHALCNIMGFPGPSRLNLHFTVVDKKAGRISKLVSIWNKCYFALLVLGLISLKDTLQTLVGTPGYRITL
Format: biochemical.

A short description of test [8]: mammalian cell cytotoxicity, dose response, cytotoxicity control, plate reader, cherry-pick samples (AID 504397). Format: functional, cell-based.
The target in test [9] is T4, Intestinal-type alkaline phosphatase (Homo sapiens, UniProt P09923). As to the kind of experiment: human intestinal alkaline phosphatase activators, dose response, biochemical, luminescence, uHTS hits (AID 463120). Format: functional.
T4 sequence (P09923 whole entry): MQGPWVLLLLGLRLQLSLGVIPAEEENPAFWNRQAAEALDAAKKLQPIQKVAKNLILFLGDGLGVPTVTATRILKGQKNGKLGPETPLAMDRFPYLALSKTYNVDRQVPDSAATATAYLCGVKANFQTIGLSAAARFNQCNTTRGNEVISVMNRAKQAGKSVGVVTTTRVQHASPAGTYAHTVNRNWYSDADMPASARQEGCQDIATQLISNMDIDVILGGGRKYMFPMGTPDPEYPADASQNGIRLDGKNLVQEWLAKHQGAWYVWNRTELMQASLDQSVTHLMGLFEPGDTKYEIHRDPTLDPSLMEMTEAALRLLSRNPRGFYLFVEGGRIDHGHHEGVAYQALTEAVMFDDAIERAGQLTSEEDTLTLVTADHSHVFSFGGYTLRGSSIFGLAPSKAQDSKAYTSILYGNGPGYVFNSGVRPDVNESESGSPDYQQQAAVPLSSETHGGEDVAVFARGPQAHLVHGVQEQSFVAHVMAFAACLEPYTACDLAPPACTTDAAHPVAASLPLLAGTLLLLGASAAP
The target in test [10] is T4, Intestinal-type alkaline phosphatase. As to the kind of experiment: Dose Response confirmation of uHTS hits from a small molecule inhibitors of human intestinal alkaline phosphatase via a luminescent assay. [Related pubchem assays (depositor defined):AID2544, AID2574]. Format: functional.
The target of test [11] is T5, Oxysterols receptor LXR-beta (Homo sapiens, UniProt P55055).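 Also: Cell-based luminescence dose-response assay of agonist activity at LXR, run as a confirmatory counterscreen to a daf-12 agonist screen; HEK293 cells with Gal4-LXR fusion and GAL4-driven luciferase reporter; agonist potency from rising luciferase signal of a Gal4-LXR reporter.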
T5 sequence (P55055 whole entry): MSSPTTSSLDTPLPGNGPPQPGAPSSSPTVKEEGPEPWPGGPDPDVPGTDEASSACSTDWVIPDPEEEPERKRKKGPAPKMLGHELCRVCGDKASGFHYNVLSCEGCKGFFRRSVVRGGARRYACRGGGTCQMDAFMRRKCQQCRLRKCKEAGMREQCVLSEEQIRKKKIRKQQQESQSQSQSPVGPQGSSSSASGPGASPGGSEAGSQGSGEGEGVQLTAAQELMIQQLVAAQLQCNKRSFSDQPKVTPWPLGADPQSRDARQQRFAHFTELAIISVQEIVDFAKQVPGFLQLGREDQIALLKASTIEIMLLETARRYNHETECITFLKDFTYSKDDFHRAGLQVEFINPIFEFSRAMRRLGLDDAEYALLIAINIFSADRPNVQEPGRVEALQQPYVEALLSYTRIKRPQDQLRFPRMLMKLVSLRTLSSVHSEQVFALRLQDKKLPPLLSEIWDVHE
Format: functional, cell-based.

For test [12], the target named is T6, Voltage-gated N-type calcium channel alpha-1B subunit/Amyloid beta A4 precursor protein-binding family A member 1 (Homo sapiens, UniProt Q00975+Q02410). Format: protein assay.
The target of test [13] is T6, Voltage-gated N-type calcium channel alpha-1B subunit/Amyloid beta A4 precursor protein-binding family A member 1. Format: protein assay. This is another data set of the same source.
Test [14] addresses T7, High affinity choline transporter 1 (Homo sapiens, UniProt Q9GZV3).
T7 sequence (Q9GZV3 whole entry): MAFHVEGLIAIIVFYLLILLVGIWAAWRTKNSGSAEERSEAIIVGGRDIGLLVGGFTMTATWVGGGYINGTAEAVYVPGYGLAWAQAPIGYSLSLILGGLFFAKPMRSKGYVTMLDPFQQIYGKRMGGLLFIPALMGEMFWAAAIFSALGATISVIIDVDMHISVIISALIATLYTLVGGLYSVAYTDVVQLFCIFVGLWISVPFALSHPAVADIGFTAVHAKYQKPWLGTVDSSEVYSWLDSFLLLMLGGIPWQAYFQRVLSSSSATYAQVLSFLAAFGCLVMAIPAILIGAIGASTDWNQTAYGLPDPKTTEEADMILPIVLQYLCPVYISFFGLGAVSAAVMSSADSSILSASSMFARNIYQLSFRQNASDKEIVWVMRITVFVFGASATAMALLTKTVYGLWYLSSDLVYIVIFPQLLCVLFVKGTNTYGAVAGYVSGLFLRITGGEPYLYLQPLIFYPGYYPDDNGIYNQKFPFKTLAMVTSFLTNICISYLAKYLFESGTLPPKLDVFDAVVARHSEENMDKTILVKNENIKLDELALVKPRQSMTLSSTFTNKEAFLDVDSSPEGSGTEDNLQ
Put plainly: CHT inhibitors, dose response, cell-based, 5-point CRC, membrane potential dye (AID 504840). Format: functional.

Chain of DNA dC->dU-editing enzyme APOBEC-3A (P31941 whole entry): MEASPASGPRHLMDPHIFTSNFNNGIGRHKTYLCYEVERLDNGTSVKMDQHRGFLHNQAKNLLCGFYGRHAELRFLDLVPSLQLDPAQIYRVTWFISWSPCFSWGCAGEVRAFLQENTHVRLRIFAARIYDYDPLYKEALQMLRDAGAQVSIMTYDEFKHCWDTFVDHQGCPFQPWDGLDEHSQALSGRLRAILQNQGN
Chain of Peroxisome proliferator-activated receptor gamma/Nuclear receptor coactivator 1 (P37231 whole entry): as the sequence (P37231 whole entry) above
Chain of Peroxisome proliferator-activated receptor gamma/Nuclear receptor coactivator 1 (Q15788 whole entry, further chain): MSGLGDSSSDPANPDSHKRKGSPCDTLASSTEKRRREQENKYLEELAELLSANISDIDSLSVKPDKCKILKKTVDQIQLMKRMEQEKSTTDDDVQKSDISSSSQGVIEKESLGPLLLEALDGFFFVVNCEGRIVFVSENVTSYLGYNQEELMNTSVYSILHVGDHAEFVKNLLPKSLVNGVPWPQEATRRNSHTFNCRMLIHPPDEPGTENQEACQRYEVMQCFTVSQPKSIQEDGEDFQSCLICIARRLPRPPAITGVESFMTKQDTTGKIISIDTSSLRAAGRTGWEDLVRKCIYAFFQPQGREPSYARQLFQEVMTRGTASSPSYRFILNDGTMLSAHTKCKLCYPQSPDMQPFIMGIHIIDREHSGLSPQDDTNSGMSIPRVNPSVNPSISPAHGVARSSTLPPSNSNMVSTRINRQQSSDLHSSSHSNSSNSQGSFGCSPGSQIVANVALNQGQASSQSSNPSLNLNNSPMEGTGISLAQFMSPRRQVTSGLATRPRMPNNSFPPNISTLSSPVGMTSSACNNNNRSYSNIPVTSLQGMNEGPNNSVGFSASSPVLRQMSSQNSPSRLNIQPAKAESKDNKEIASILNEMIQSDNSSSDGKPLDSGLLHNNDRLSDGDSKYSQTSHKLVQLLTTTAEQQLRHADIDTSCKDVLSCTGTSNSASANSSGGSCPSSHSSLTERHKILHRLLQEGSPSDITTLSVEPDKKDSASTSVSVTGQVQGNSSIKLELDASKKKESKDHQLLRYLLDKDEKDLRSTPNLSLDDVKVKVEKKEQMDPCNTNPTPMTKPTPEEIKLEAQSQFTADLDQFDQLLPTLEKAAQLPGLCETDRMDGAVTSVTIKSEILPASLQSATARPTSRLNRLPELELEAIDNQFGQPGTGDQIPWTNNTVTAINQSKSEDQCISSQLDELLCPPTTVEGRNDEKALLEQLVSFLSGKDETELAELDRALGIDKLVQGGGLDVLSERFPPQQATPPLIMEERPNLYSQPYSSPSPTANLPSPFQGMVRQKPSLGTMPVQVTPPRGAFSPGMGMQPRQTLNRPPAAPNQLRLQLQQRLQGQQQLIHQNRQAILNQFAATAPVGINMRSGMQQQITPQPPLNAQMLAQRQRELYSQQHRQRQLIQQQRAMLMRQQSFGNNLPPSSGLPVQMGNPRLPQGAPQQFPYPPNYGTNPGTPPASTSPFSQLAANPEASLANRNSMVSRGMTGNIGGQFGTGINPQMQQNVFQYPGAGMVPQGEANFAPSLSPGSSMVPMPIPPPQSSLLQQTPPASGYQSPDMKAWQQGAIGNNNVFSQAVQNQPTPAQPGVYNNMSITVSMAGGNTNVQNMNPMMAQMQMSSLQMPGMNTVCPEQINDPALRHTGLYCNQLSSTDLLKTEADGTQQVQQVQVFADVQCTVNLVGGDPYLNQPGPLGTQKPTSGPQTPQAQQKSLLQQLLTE

As for `COc1cc(OC)c(C(=O)OC(C)C(=O)Nc2cccc(C(F)(F)F)c2)cc1OC` (stereo not drawn), the EC50 on Troponin, cardiac muscle is > 71.5 µM (inactive).

`Nc1cccc(C(=O)Nc2ccco2)c1`: the AC50 in test [1] was 27.5 µM (active).

As to `Clc1cccc(NC2=NN=C(c3ccc4c(c3)OCCO4)CS2)c1`, the values for the EC50 on Hexokinase-1 and at Hexokinase HKDC1 were 41.3 µM (inactive) and 23.2 µM (inactive), respectively. The concentration at half-maximal activity (AC50) in the test with INS1 is 2.25 µM (active).

As to `CCOCc1cnc(C)nc1NCC(=O)c1c(C)[nH]c2ccc(OC)cc12`, the IC50 is 2.59 µM (active) in test [2] and 5.53 µM (active) in [3].

As for `Cc1onc(-c2ccccc2Cl)c1C(=O)Nc1nnc(-c2ccc(Cl)cc2Cl)s1`, the EC50 in test [4] is 75.5 µM (not active); in test [5], 51.2 µM (inactive); in test [6], 42.8 µM (not active).

For `Sc1nc(-c2ccc(Cl)cc2)cs1`, the EC50 in test [4] is > 79.4 µM (not active); in [5], 12 µM (inactive); in [6] it was 21.8 µM (not active).

`Cc1ccc(NC(=O)/C(C#N)=C(\N)C(Cl)(Cl)Cl)nc1`: the half-maximal activity concentration (AC50) on Keap1/Nrf2 was 11.9 µM (active).

On to `CCn1c(=O)c(C(=O)CN2CCCc3ccccc32)c(N)n(Cc2ccccc2)c1=O`, for which the EC50 on Troponin, cardiac muscle is > 23.8 µM (inactive). Moreover, the CC50 in test [7] is 12.4 µM (active).

As to `CCN(CC)CCN(C(=O)c1ccc2ccccc2c1)c1nc2ccc(F)cc2s1`, the concentration at half-maximal activity (AC50) on CAAX prenyl protease 2 is 6.18 µM (active); in [8], 181 µM (active).

As for `NC(=O)c1c(NC(=O)c2ccc(F)cc2)sc2c1CCC2`, the EC50 is > 67.5 µM (inactive) in the test “cells”, > 100 µM (inactive) in test [9] and > 67.5 µM (inactive) in test [11]. The IC50 in [10] was > 100 µM (inactive).

For the molecule `COc1cccc(/C=N/Nc2nn3cnnc3c3ccccc23)c1O`, the values for the IC50 in test [12] and in test [13] were > 50 µM (inactive) and 20.6 µM (active), respectively. For the same molecule, in test [9], the EC50 was > 100 µM (inactive).

Take `CC(=O)OCCCCCCCCCCC[N+]1(C)CCCCC1`: the concentration for half-maximal inhibition (IC50) was 2.03 µM (active) in [2], 2.17 µM (active) in test [3] and 14.1 µM (active) in [14].

By EC50 is commonly meant the concentration that produces a half-maximal response. Broadly, the AC50 is the concentration giving half of the maximal activity seen. One may read the IC50 as the concentration that gives 50% inhibition. Usually CC50 stands for the concentration that lowers cell viability or growth by half.
